Experimental data as given in US4015974A, “Amido phosphorothiolates” (priority 1972, dated 1977).

How the values were obtained:
Assay type in all cases: in vivo
[1] = tested on: barnyard grass (Echinochloa crus-galli); assay: Pre-emergence application, herbicidal effect on barnyard grass (Table 1); parameters: key: 0: not damaged; 5: completely killed; settings: 20 days after application, score 0-5
Method in brief: (§1)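 Pre-emergence soil treatment: seeds sown in pots of about 10 cm and covered with soil, then compounds applied as wettable powder diluted in water. Plants grown in a greenhouse; damage scored 20 days after application from 0 (not damaged) to 5 (completely killed).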

[2] = tested on: large crabgrass (Digitaria sanguinalis); assay: Pre-emergence application, herbicidal effect on large crabgrass (Table 1); parameters: key: 0: not damaged; 5: completely killed; settings: 20 days after application, score 0-5
Method in brief: as §1

radish = assay: Pre-emergence application, herbicidal effect on radish (Table 1); parameters: key: 0: not damaged; 5: completely killed; settings: 20 days after application, score 0-5
Method in brief: as §1

[3] = tested on: redroot pigweed (Amaranthus retroflexus); assay: Pre-emergence application, herbicidal effect on redroot pigweed (Table 1); parameters: key: 0: not damaged; 5: completely killed; settings: 20 days after application, score 0-5
Method in brief: as §1

[4] = tested on: common purslane (Portulaca oleracea); assay: Pre-emergence application, herbicidal effect on common purslane (Table 1); parameters: key: 0: not damaged; 5: completely killed; settings: 20 days after application, score 0-5
Method in brief: as §1

[5] = tested on: common lambsquarter (Chenopodium album); assay: Pre-emergence application, herbicidal effect on common lambsquarter (Table 1); parameters: key: 0: not damaged; 5: completely killed; settings: 20 days after application, score 0-5
Method in brief: as §1

rice = assay: Water application, phytotoxicity on rice (Table 2); parameters: key: 0: no effect; 1: very slightly affected; 2: slightly affected; 3: moderately affected; 4: considerably affected; 5: completely killed; settings: 25 days, score 0-5
Method in brief: (§2)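 Flooded paddy-soil pots with 3-leaf-stage transplanted rice and sown barnyard grass; wettable-powder compounds applied to soil under water. Herbicidal effect and rice phytotoxicity, also on spontaneously germinated broad-leaved weeds, scored 0–5 at 25 days after application.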

[6] = tested on: barnyard grass (Echinochloa crus-galli); assay: Water application, herbicidal effect on barnyard grass (Table 2); parameters: key: 0: not damaged; 5: completely killed; settings: 25 days, score 0-5
Method in brief: as §2

[7] = tested on: broad-leaved weeds, e.g., monochoria, false pimpernel and toothcup; assay: Water application, herbicidal effect on broad-leaved weeds (Table 2); parameters: key: 0: not damaged; 5: completely killed; settings: 25 days, score 0-5
Method in brief: as §2

C=C(C)CSP(=O)(OCC)SCC(=O)N1CCCCC1CC (stereo not drawn) [Compound 81]
Herbicidal effect, barnyard grass ([1]; 10 g./a.): 5
Herbicidal effect, barnyard grass ([1]; 20 g./a.): 5
Herbicidal effect, barnyard grass ([1]; 40 g./a.): 5
Herbicidal effect, large crabgrass ([2]; 10 g./a.): 5
Herbicidal effect, large crabgrass ([2]; 20 g./a.): 5
Herbicidal effect, large crabgrass ([2]; 40 g./a.): 5
Herbicidal effect, radish (radish; 10 g./a.): 0
Herbicidal effect, radish (radish; 20 g./a.): 0
Herbicidal effect, radish (radish; 40 g./a.): 1
Herbicidal effect, redroot pigweed ([3]; 10 g./a.): 5
Herbicidal effect, redroot pigweed ([3]; 20 g./a.): 5
Herbicidal effect, redroot pigweed ([3]; 40 g./a.): 5
Herbicidal effect, common purslane ([4]; 10 g./a.): 5
Herbicidal effect, common purslane ([4]; 20 g./a.): 5
Herbicidal effect, common purslane ([4]; 40 g./a.): 5
Herbicidal effect, common lambsquarter ([5]; 10 g./a.): 5
Herbicidal effect, common lambsquarter ([5]; 20 g./a.): 5
Herbicidal effect, common lambsquarter ([5]; 40 g./a.): 5
Phytotoxicity on rice (rice; 10 g/a): 0
Phytotoxicity on rice (rice; 20 g/a): 0
Phytotoxicity on rice (rice; 40 g/a): 1
Herbicidal effects, barnyard grass ([6]; 10 g/a): 5
Herbicidal effects, barnyard grass ([6]; 20 g/a): 5
Herbicidal effects, barnyard grass ([6]; 40 g/a): 5
Herbicidal effects, broad-leaved weeds ([7]; 10 g/a): 5
Herbicidal effects, broad-leaved weeds ([7]; 20 g/a): 5
Herbicidal effects, broad-leaved weeds ([7]; 40 g/a): 5

C=C(Cl)CSP(=O)(OCC)SCC(=O)N1CCCCC1CC (stereo not drawn) [Compound 82]
Herbicidal effect, barnyard grass ([1]; 10 g./a.): 5
Herbicidal effect, barnyard grass ([1]; 20 g./a.): 5
Herbicidal effect, barnyard grass ([1]; 40 g./a.): 5
Herbicidal effect, large crabgrass ([2]; 10 g./a.): 5
Herbicidal effect, large crabgrass ([2]; 20 g./a.): 5
Herbicidal effect, large crabgrass ([2]; 40 g./a.): 5
Herbicidal effect, radish (radish; 10 g./a.): 0
Herbicidal effect, radish (radish; 20 g./a.): 0
Herbicidal effect, radish (radish; 40 g./a.): 1
Herbicidal effect, redroot pigweed ([3]; 10 g./a.): 4
Herbicidal effect, redroot pigweed ([3]; 20 g./a.): 4
Herbicidal effect, redroot pigweed ([3]; 40 g./a.): 5
Herbicidal effect, common purslane ([4]; 10 g./a.): 3
Herbicidal effect, common purslane ([4]; 20 g./a.): 4
Herbicidal effect, common purslane ([4]; 40 g./a.): 5
Herbicidal effect, common lambsquarter ([5]; 10 g./a.): 4
Herbicidal effect, common lambsquarter ([5]; 20 g./a.): 4
Herbicidal effect, common lambsquarter ([5]; 40 g./a.): 5
Phytotoxicity on rice (rice; 10 g/a): 0
Phytotoxicity on rice (rice; 20 g/a): 0
Phytotoxicity on rice (rice; 40 g/a): 2
Herbicidal effects, barnyard grass ([6]; 10 g/a): 5
Herbicidal effects, barnyard grass ([6]; 20 g/a): 5
Herbicidal effects, barnyard grass ([6]; 40 g/a): 5
Herbicidal effects, broad-leaved weeds ([7]; 10 g/a): 5
Herbicidal effects, broad-leaved weeds ([7]; 20 g/a): 5
Herbicidal effects, broad-leaved weeds ([7]; 40 g/a): 5

CCCOP(=O)(SC)SCC(=O)N1CCCCC1CC (stereo not drawn) [Compound 83]
Herbicidal effect, barnyard grass ([1]; 10 g./a.): 5
Herbicidal effect, barnyard grass ([1]; 20 g./a.): 5
Herbicidal effect, barnyard grass ([1]; 40 g./a.): 5
Herbicidal effect, large crabgrass ([2]; 10 g./a.): 5
Herbicidal effect, large crabgrass ([2]; 20 g./a.): 5
Herbicidal effect, large crabgrass ([2]; 40 g./a.): 5
Herbicidal effect, radish (radish; 10 g./a.): 0
Herbicidal effect, radish (radish; 20 g./a.): 1
Herbicidal effect, radish (radish; 40 g./a.): 2
Herbicidal effect, redroot pigweed ([3]; 10 g./a.): 5
Herbicidal effect, redroot pigweed ([3]; 20 g./a.): 5
Herbicidal effect, redroot pigweed ([3]; 40 g./a.): 5
Herbicidal effect, common purslane ([4]; 10 g./a.): 5
Herbicidal effect, common purslane ([4]; 20 g./a.): 5
Herbicidal effect, common purslane ([4]; 40 g./a.): 5
Herbicidal effect, common lambsquarter ([5]; 10 g./a.): 5
Herbicidal effect, common lambsquarter ([5]; 20 g./a.): 5
Herbicidal effect, common lambsquarter ([5]; 40 g./a.): 5
Phytotoxicity on rice (rice; 10 g/a): 0
Phytotoxicity on rice (rice; 20 g/a): 0
Phytotoxicity on rice (rice; 40 g/a): 0
Herbicidal effects, barnyard grass ([6]; 10 g/a): 5
Herbicidal effects, barnyard grass ([6]; 20 g/a): 5
Herbicidal effects, barnyard grass ([6]; 40 g/a): 5
Herbicidal effects, broad-leaved weeds ([7]; 10 g/a): 5
Herbicidal effects, broad-leaved weeds ([7]; 20 g/a): 5
Herbicidal effects, broad-leaved weeds ([7]; 40 g/a): 5

CCCOP(=O)(SCC)SCC(=O)N1CCCCC1CC (stereo not drawn) [Compound 84]
Herbicidal effect, barnyard grass ([1]; 10 g./a.): 5
Herbicidal effect, barnyard grass ([1]; 20 g./a.): 5
Herbicidal effect, barnyard grass ([1]; 40 g./a.): 5
Herbicidal effect, large crabgrass ([2]; 10 g./a.): 5
Herbicidal effect, large crabgrass ([2]; 20 g./a.): 5
Herbicidal effect, large crabgrass ([2]; 40 g./a.): 5
Herbicidal effect, radish (radish; 10 g./a.): 0
Herbicidal effect, radish (radish; 20 g./a.): 1
Herbicidal effect, radish (radish; 40 g./a.): 2
Herbicidal effect, redroot pigweed ([3]; 10 g./a.): 4
Herbicidal effect, redroot pigweed ([3]; 20 g./a.): 5
Herbicidal effect, redroot pigweed ([3]; 40 g./a.): 5
Herbicidal effect, common purslane ([4]; 10 g./a.): 5
Herbicidal effect, common purslane ([4]; 20 g./a.): 5
Herbicidal effect, common purslane ([4]; 40 g./a.): 5
Herbicidal effect, common lambsquarter ([5]; 10 g./a.): 4
Herbicidal effect, common lambsquarter ([5]; 20 g./a.): 5
Herbicidal effect, common lambsquarter ([5]; 40 g./a.): 5
Phytotoxicity on rice (rice; 10 g/a): 0
Phytotoxicity on rice (rice; 20 g/a): 0
Phytotoxicity on rice (rice; 40 g/a): 2
Herbicidal effects, barnyard grass ([6]; 10 g/a): 5
Herbicidal effects, barnyard grass ([6]; 20 g/a): 5
Herbicidal effects, barnyard grass ([6]; 40 g/a): 5
Herbicidal effects, broad-leaved weeds ([7]; 10 g/a): 5
Herbicidal effects, broad-leaved weeds ([7]; 20 g/a): 5
Herbicidal effects, broad-leaved weeds ([7]; 40 g/a): 5

CCCOP(=O)(SCCC)SCC(=O)N1CCCCC1CC (stereo not drawn) [Compound 85]
Herbicidal effect, barnyard grass ([1]; 10 g./a.): 5
Herbicidal effect, barnyard grass ([1]; 20 g./a.): 5
Herbicidal effect, barnyard grass ([1]; 40 g./a.): 5
Herbicidal effect, large crabgrass ([2]; 10 g./a.): 5
Herbicidal effect, large crabgrass ([2]; 20 g./a.): 5
Herbicidal effect, large crabgrass ([2]; 40 g./a.): 5
Herbicidal effect, radish (radish; 10 g./a.): 0
Herbicidal effect, radish (radish; 20 g./a.): 0
Herbicidal effect, radish (radish; 40 g./a.): 0
Herbicidal effect, redroot pigweed ([3]; 10 g./a.): 5
Herbicidal effect, redroot pigweed ([3]; 20 g./a.): 5
Herbicidal effect, redroot pigweed ([3]; 40 g./a.): 5
Herbicidal effect, common purslane ([4]; 10 g./a.): 5
Herbicidal effect, common purslane ([4]; 20 g./a.): 5
Herbicidal effect, common purslane ([4]; 40 g./a.): 5
Herbicidal effect, common lambsquarter ([5]; 10 g./a.): 5
Herbicidal effect, common lambsquarter ([5]; 20 g./a.): 5
Herbicidal effect, common lambsquarter ([5]; 40 g./a.): 5
Phytotoxicity on rice (rice; 10 g/a): 0
Phytotoxicity on rice (rice; 20 g/a): 0
Phytotoxicity on rice (rice; 40 g/a): 0
Herbicidal effects, barnyard grass ([6]; 10 g/a): 5
Herbicidal effects, barnyard grass ([6]; 20 g/a): 5
Herbicidal effects, barnyard grass ([6]; 40 g/a): 5
Herbicidal effects, broad-leaved weeds ([7]; 10 g/a): 5
Herbicidal effects, broad-leaved weeds ([7]; 20 g/a): 5
Herbicidal effects, broad-leaved weeds ([7]; 40 g/a): 5

CCCCSP(=O)(OCCC)SCC(=O)N1CCCCC1CC (stereo not drawn) [Compound 86]
Herbicidal effect, barnyard grass ([1]; 10 g./a.): 5
Herbicidal effect, barnyard grass ([1]; 20 g./a.): 5
Herbicidal effect, barnyard grass ([1]; 40 g./a.): 5
Herbicidal effect, large crabgrass ([2]; 10 g./a.): 5
Herbicidal effect, large crabgrass ([2]; 20 g./a.): 5
Herbicidal effect, large crabgrass ([2]; 40 g./a.): 5
Herbicidal effect, radish (radish; 10 g./a.): 0
Herbicidal effect, radish (radish; 20 g./a.): 0
Herbicidal effect, radish (radish; 40 g./a.): 0
Herbicidal effect, redroot pigweed ([3]; 10 g./a.): 4
Herbicidal effect, redroot pigweed ([3]; 20 g./a.): 5
Herbicidal effect, redroot pigweed ([3]; 40 g./a.): 5
Herbicidal effect, common purslane ([4]; 10 g./a.): 5
Herbicidal effect, common purslane ([4]; 20 g./a.): 5
Herbicidal effect, common purslane ([4]; 40 g./a.): 5
Herbicidal effect, common lambsquarter ([5]; 10 g./a.): 5
Herbicidal effect, common lambsquarter ([5]; 20 g./a.): 5
Herbicidal effect, common lambsquarter ([5]; 40 g./a.): 5
Phytotoxicity on rice (rice; 10 g/a): 0
Phytotoxicity on rice (rice; 20 g/a): 0
Phytotoxicity on rice (rice; 40 g/a): 0
Herbicidal effects, barnyard grass ([6]; 10 g/a): 5
Herbicidal effects, barnyard grass ([6]; 20 g/a): 5
Herbicidal effects, barnyard grass ([6]; 40 g/a): 5
Herbicidal effects, broad-leaved weeds ([7]; 10 g/a): 5
Herbicidal effects, broad-leaved weeds ([7]; 20 g/a): 5
Herbicidal effects, broad-leaved weeds ([7]; 40 g/a): 5
